Experimental findings from patent EP3839043A1, “SCREENING METHODS FOR COMPOUNDS MODULATING POLYAMINE TRANSPORT” (Katholieke Universiteit Leuven, priority 2019, dated 2021) are described below.

Data set [1] concerns the target ATP13A2 (Homo sapiens, UniProt Q9NQ11). How it is done: (§1) PLoS One 13, e0193228, (2018)].
(§2) In case of purified ATP13A2, 125 µM PA and 125 µM PI(3,5)P2 were included in the reaction mixture. To determine the sensitivity of the ATP13A2 phosphoenzyme to ATP or a combination of ATP and SPM, 30 s after adding ^32P-ATP, samples were incubated with non-radioactive ATP (5 mM in experiments using microsomes, 1 mM when purified ATP13A2 was used) and SPM (1 mM) before the reaction was stopped at indicated time points. The incorporation of ^32P was visualized following SDS-PAGE under acidic conditions and subsequently detected by autoradiography (microsomes) or liquid scintillation counting (purified ATP13A2) (Liquid Scintillation Analyzer TRI-CARB 2900TR).

For data set [2], the target named is T1, Purified ATP13A2 (Homo sapiens, UniProt Q9NQ11).
T1 sequence (Q9NQ11 1-1175 isoform Q9NQ11-3): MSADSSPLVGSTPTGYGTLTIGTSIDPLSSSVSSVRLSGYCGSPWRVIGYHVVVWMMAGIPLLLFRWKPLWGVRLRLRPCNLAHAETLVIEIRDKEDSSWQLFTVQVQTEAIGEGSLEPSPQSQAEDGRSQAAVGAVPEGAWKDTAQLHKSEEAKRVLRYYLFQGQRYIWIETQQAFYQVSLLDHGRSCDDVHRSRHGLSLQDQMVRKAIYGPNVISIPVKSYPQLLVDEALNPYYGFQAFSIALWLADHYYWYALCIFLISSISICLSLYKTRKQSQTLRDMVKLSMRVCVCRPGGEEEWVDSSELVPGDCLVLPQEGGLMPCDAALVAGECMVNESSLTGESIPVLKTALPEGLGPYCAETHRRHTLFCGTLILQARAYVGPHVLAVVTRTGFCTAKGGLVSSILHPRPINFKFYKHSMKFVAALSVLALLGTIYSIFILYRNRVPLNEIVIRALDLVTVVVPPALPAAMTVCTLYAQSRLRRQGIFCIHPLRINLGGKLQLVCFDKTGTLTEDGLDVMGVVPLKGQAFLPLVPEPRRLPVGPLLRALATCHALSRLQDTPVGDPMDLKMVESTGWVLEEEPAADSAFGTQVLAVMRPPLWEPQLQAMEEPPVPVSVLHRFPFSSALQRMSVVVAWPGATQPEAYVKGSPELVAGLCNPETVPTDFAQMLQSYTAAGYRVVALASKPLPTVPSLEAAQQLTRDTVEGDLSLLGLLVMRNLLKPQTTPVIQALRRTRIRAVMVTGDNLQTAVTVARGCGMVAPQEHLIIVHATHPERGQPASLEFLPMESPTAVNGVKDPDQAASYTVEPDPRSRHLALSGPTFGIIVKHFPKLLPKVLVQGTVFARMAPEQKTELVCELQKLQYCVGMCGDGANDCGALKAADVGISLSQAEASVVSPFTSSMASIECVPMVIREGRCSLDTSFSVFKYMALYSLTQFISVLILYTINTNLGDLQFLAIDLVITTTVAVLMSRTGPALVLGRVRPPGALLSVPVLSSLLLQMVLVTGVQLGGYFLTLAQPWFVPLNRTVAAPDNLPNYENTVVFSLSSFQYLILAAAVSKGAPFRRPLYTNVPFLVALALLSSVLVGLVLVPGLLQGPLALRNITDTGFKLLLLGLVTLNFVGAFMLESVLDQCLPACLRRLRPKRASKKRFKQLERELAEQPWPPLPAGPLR
Particulars: 1 mM SPM. How it is done:
as §1, §2

Data set [3] concerns SH-SY5Y cells. Particulars: KO and KO/D508N cells; 10 µM SPM, 4 h.
Procedure: FITC-dextran based lysosomal pH - SH-SY5Y cells were seeded in 12-well plates (1.0 X 10^5 cells per well) and allowed to adhere overnight. Cells were exposed to 50 µg/ml FITC-dextran for 72 h. Samples were then washed, placed in fresh media and treated with SPM (10 µM) alone or in combination with acidic nanoparticles (180 ng/ml, 1 h pre-incubation) for 4 h. Samples were then collected by centrifugation (450 x g, 5 min) and washed in PBS. Cells were finally resuspended in 500 µl of PBS containing 1% BSA and FITC dual emission assessed by flow cytometry (excitation 488 nm, emission 530 (BL1) and 600 (BL2)) using an Attune NXT flow cytometer (Invitrogen). The emission (BL1/BL2) of all samples were compared to a standard curve, whereby signals were obtained from control cells resuspended in monensin (100 µM) containing Britton Robinson buffer with increasing pH (3.0-8.0).
Data set [4] addresses D508N mutant (Homo sapiens, UniProt Q9NQ11, D513N). Particulars: 100 µM SPM. How it is done:
Membrane fractionation - Transduced SH-SY5Y cells were seeded in […] at a density of 6 x 10^6 cells per plate. 24 h later, the cells were harvested following trypsinization and brief centrifugation (300 x g, 5 min). Subcellular fractionation was performed by differential centrifugation. The microsomal protein concentration was measured using the bicinchoninic acid assay (Thermo Fischer Scientific, Pierce) according to the manufacturer's instructions.
ATPase assay - The ATPase activity of ATP13A2 was assessed using a commercially available luminescence assay (ADP-Glo Max assay, Promega) that monitors the production of ADP via luciferase activity. The reactions were performed for 30 min (37°C) in a final volume of 25 µl. The assay reaction mixture contained 50 mM MOPS-KOH (pH 7), 100 mM KCI, 11 mM MgCl2, 1 mM DTT, 195 µM DDM, various concentrations of the indicated compound, and either microsomes (5 µg) harvested from SH-SY5Y cells overexpressing ATP13A2 (WT or mutants) or purified ATP13A2 (0.5 µg). When purified ATP13A2 was used, we included 125 µM PA, 125 µM PI(3,5)P2 and 19.5 µM DDM in the reaction buffer. […] After 40 min, luminescence was detected using a FlexStation 3.0 system (Molecular Devices). Dose-response curves and n/Km/Vmax values were calculated using GraphPad Prism Software (GraphPad Software Inc.).

Data set [5] concerns SH-SY5Y cells. Particulars: KO and KO/D508N cells; SPM 10 µM, 4 h.
Procedure: BODIPY-SPM localization and lysosomal rupture analysis - For all immunofluorescent stainings SH-SY5Y cell lines were seeded in 12-well plates (0.25 X 10^5 cells per well on coverslips) and the next day, the cells were incubated with the indicated compounds for 4 h at 37°C. For BODIPY-SPM analysis, cells were pulsed with 5 µM SPM for 15 min, washed and chased in fresh media for a further 1 h and 45 min at 37°C. Following treatments, the cells were washed twice in PBS, fixed in 4% paraformaldehyde for 30 min (37°C), washed in PBS and stored at 4°C. For immunofluorescence staining, the cells were washed in PBS containing 0.5% Tween 20 (PBS-T), permeabilized in PBS containing 0.1% Triton X-100 (30 min) and blocked first in 0.1 M glycine and then in PBS-T containing 1% fetal calf serum and 10% BSA. Gal-3-, LAMP1- and cathepsin B-specific antibodies were used at a dilution of 1:100-200 (in PBS-T containing 1% BSA) overnight at 4°C. Subsequently, the samples were washed and incubated with Alexa Fluor™ secondary antibody (1:1,000, 30 min). To assess FITC-dextran release, cells were loaded with 50 µg/ml FITC-dextran for 72 h, cells were then washed and placed in fresh media for 1 h prior to SPM (10 µM) addition. To visualize the nucleus, all samples were stained with DAPI. […]
The subject of data set [6] is cathepsin D (CTSD). Particulars: toxic SPM levels (10 µM, 4 h). How it is done:
(§3) Cathepsin activity assays - SH-SY5Y cells were seeded in 10 cm^2 plates (2 X 10^6 cells per plate) and allowed to adhere overnight prior to treatment with 10 µM SPM for 4 h at 37°C. For samples requiring acidic nanoparticle addition, 180 ng/ml nanoparticles were added 1 h prior to SPM addition. Next, the samples were harvested using TRYPLE and a brief centrifugation (300 x g; 5 min). CTSB (ab65300) and CTSD (ab65302) activities were assessed using commercially available kits (Abcam) according to the manufacturer's instructions. MFI were acquired using a FlexStation 3.0 multi-well plate reader (Molecular Devices).

For data set [7], the system named is cathepsin B (CTSB). Particulars: toxic SPM levels (10 µM, 4 h). The method, then:
as §3

Data set [8] deals with SH-SY5Y cells.
Procedure: PI exclusion assay - Cells were seeded in 12-well plates (1.0 X 10^5 cells per well) and the next day, the cells were treated with increasing doses of SPM, alone or in combination with the CTSB inhibitor CA-074 (25 µM, 1 h pre-incubation) or acidic nanoparticles (180 ng/ml, 1 h pre-incubation), and incubated for 24 h at 37°C. Thereafter, the cells were harvested following trypsinization and a brief centrifugation (300 x g; 5 min), washed with PBS and stained with 1 µg/ml PI (in PBS containing 1% BSA). An Attune Nxt (Thermo Fischer Scientific) flow cytometer was used to determine the proportion of PI-positive cells (10,000 events per treatment).

Molecules are shown by their SMILES.

Sequence of D508N mutant (Q9NQ11 1-1175 isoform Q9NQ11-3 D508N): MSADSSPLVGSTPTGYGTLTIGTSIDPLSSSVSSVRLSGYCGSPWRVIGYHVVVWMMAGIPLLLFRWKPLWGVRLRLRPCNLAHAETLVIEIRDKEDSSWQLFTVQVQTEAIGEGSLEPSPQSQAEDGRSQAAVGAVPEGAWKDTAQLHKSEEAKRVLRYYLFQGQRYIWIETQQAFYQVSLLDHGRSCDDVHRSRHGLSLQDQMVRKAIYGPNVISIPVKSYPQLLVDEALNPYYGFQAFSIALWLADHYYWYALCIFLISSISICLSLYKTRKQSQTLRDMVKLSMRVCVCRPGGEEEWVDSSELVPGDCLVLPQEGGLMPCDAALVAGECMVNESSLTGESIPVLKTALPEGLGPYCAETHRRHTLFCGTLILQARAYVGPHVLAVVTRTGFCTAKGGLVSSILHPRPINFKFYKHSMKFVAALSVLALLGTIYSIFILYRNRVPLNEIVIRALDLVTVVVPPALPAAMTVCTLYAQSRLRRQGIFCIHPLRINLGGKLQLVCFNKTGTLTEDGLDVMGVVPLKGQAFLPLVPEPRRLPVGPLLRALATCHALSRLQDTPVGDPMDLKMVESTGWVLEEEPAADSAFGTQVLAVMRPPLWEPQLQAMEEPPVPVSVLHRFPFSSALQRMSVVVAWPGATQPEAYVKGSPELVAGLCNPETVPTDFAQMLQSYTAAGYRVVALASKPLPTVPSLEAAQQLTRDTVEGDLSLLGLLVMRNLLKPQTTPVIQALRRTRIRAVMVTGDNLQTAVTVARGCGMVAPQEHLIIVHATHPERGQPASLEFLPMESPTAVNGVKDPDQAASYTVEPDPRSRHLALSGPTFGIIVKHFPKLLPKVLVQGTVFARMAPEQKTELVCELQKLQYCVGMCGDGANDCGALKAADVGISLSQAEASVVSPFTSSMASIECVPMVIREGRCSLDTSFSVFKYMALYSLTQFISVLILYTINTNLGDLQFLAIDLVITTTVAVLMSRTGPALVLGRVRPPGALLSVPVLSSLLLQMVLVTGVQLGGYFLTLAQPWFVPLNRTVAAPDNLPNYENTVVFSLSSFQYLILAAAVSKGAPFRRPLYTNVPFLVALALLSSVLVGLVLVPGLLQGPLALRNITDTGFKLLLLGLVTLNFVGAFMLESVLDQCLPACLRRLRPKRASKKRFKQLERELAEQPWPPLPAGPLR

`NCCCNCCCCNCCCN` [Spermine, spermine]: in data set [1] (WT-OE microsomes 20 µg, 60 s with [γ-32P] ATP), the ATP13A2 phospho-enzyme levels result is reported as “dose-dependent reduction”. The “dephosphorylation rate following a chase with non-radioactive ATP” value in data set [1] (WT-OE microsomes, 1 mM SPM) is on record as “significantly higher dephosphorylation rate”. Also, the “dephosphorylation of purified WT after chase with cold ATP” value in data set [2] is listed as “clearly stimulates dephosphorylation”. Besides, in data set [3], the “lysosomal pH” value is on record as “further increased”. In addition, the “ATPase activity of D508N mutant” value in data set [4] is reported as “had no effect”. Besides, in data set [5], the “endogenous Gal-3 punctae” value was “increased both the number and size”. Also, in data set [6], the “cathepsin D (CTSD) activity” value was “decreased”. The “cathepsin B (CTSB) activity” value in data set [7] is listed as “increased”. For the same molecule, in data set [8], the cell death result is “increase in cell death”.
